Laboratory results published in US4594337A, “Methods of controlling mycoplasma infections” (Eli Lilly and Company, priority 1985, dated 1986).
≈ marks a conversion by molar mass, not a printed value.

Experiments:
Format in all cases: cell-based
[1] = test system: Mycoplasma hyorhinis S-41313; test: MIC, conventional broth-dilution microtiter test, Mycoplasma hyorhinis S-41313; settings: S41313
Description: (§1) The MIC's in Table I were obtained using a conventional broth-dilution microtiter test.

[2] = test system: Mycoplasma gallisepticum 38502; test: MIC, conventional broth-dilution microtiter test, Mycoplasma gallisepticum 38502 (tylosin-susceptible); settings: Mycoplasmoides gallisepticum, Mycoplasma gallisepticum 38502, tylosin-susceptible strain
Description: as §1

[3] = test system: Mycoplasma gallisepticum 34159; test: MIC, conventional broth-dilution microtiter test, Mycoplasma gallisepticum 34159 (tylosin-resistant); settings: Mycoplasmoides gallisepticum, Mycoplasma gallisepticum 34159, tylosin-resistant strain
Description: as §1

[4] = test system: Mycoplasma synoviae 46995; test: MIC, conventional broth-dilution microtiter test, Mycoplasma synoviae 46995; settings: Mycoplasmopsis synoviae
Description: as §1

[5] = test system: Mycoplasma gallisepticum 41313; test: MIC, conventional broth-dilution microtiter test, Mycoplasma gallisepticum 41313 (tylosin-resistant); settings: Mycoplasmoides gallisepticum, Mycoplasma gallisepticum 41313, tylosin-resistant strain
Description: as §1

[6] = test system: Mycoplasma hyopneumoniae S-5972; test: MIC, conventional broth-dilution microtiter test, Mycoplasma hyopneumoniae S-5972; settings: Mesomycoplasma hyopneumoniae, S5972
Description: as §1

Row | MIC [1] [µg/mL] | MIC [2] [µg/mL] | MIC [3] [µg/mL] | MIC [4] [µg/mL] | MIC [5] [µg/mL] | MIC [6] [µg/mL] | Structure (SMILES)
1 | 6.25 (≈ 6.62 µM) | 0.78 (≈ 0.826 µM) | 50 (≈ 53 µM) | 0.39 (≈ 0.413 µM) | 50 (≈ 53 µM) | – | CCC1OC(=O)CC(OC(C)=O)C(C)C(OC2OC(C)C(OC3CC(C)(O)C(O)C(C)O3)C(N(C)C)C2O)C(CC=O)CC(C)C(=O)C=CC(C)=CC1COC1OC(C)C(O)C(O)C1OC (stereo not shown) [3-Acetyl-macrocin, 3-O-Acetylmacrocin]
2 | 0.39 (≈ 0.379 µM) | ≤ 0.048 | 3.12 (≈ 3.03 µM) | ≤ 0.048 | 3.12 (≈ 3.03 µM) | 0.048 (≈ 0.0467 µM) | CCC1OC(=O)CC(OC(C)=O)C(C)C(OC2OC(C)C(OC3CC(C)(O)C(OC(=O)CC(C)C)C(C)O3)C(N(C)C)C2O)C(CC=O)CC(C)C(=O)C=CC(C)=CC1COC1OC(C)C(O)C(O)C1OC (stereo not shown) [3-Acetyl-4"-Isovaleryl-macrocin, 3-O-acetyl-4"-O-isovalerylmacrocin]
3 | 25 (≈ 31.3 µM) | 0.78 (≈ 0.975 µM) | > 50 | 0.39 (≈ 0.488 µM) | 50 (≈ 62.5 µM) | – | CCC1OC(=O)CC(OC(C)=O)C(C)C(OC2OC(C)C(O)C(N(C)C)C2O)C(CC=O)CC(C)C(=O)C=CC(C)=CC1COC1OC(C)C(O)C(O)C1OC (stereo not shown) [3-Acetyl-lactenocin, 3-O-Acetyllactenocin]
4 | 0.39 (≈ 0.385 µM) | 0.195 (≈ 0.192 µM) | 6.25 (≈ 6.16 µM) | ≤ 0.048 | 3.12 (≈ 3.08 µM) | 0.048 (≈ 0.0473 µM) | CCCC(=O)OC1C(C)OC(OC2C(C)OC(OC3C(CC=O)CC(C)C(=O)C=CC(C)=CC(COC4OC(C)C(O)C(O)C4OC)C(CC)OC(=O)CC(OC(C)=O)C3C)C(O)C2N(C)C)CC1(C)O (stereo not shown) [3-Acetyl-4"-(n-Butyryl)-macrocin, 3-O-acetyl-4"-O-(n-butyryl)macrocin]
